Measurements from ChEMBL document CHEMBL2074164, “Characterization of the transport of the bicyclic peptide phalloidin by human hepatic transport proteins” (Naunyn Schmiedebergs Arch Pharmacol, 2003).
*1 amine or outer side, *2 acyl side, *3 side chain or, on linkers, in order; H or OH if unused. Where a SMILES comes first, the peptide text is derived from it. Bridges are numbered along the chain shown (N, C = ends). [ ]: non-standard residue; d: D form. Trp(2-yl) = O=C([C@H](Cc1c([*:3])[nH]c2ccccc12)N[*:1])[*:2]; Leu(4R-OH,5-OH) = C[C@](O)(CO)C[C@H](N)C(=O)O; cisHyp = O=C(O)[C@@H]1C[C@H](O)CN1

B1: Solute carrier organic anion transporter family member 1B1 (Homo sapiens) (protein)
chain: MDQNQHLNKTAEAQPSENKKTRYCNGLKMFLAALSLSFIAKTLGAIIMKSSIIHIERRFEISSSLVGFIDGSFEIGNLLVIVFVSYFGSKLHRPKLIGIGCFIMGIGGVLTALPHFFMGYYRYSKETNINSSENSTSTLSTCLINQILSLNRASPEIVGKGCLKESGSYMWIYVFMGNMLRGIGETPIVPLGLSYIDDFAKEGHSSLYLGILNAIAMIGPIIGFTLGSLFSKMYVDIGYVDLSTIRITPTDSRWVGAWWLNFLVSGLFSIISSIPFFFLPQTPNKPQKERKASLSLHVLETNDEKDQTANLTNQGKNITKNVTGFFQSFKSILTNPLYVMFVLLTLLQVSSYIGAFTYVFKYVEQQYGQPSSKANILLGVITIPIFASGMFLGGYIIKKFKLNTVGIAKFSCFTAVMSLSFYLLYFFILCENKSVAGLTMTYDGNNPVTSHRDVPLSYCNSDCNCDESQWEPVCGNNGITYISPCLAGCKSSSGNKKPIVFYNCSCLEVTGLQNRNYSAHLGECPRDDACTRKFYFFVAIQVLNLFFSALGGTSHVMLIVKIVQPELKSLALGFHSMVIRALGGILAPIYFGALIDTTCIKWSTNNCGTRGSCRTYNSTSFSRVYLGLSSMLRVSSLVLYIILIYAMKKKYQEKDINASENGSVMDEANLESLNKNKHFVPSAGADSETHC

How the values were obtained:
Format in all cases: functional, cell-based
[1] = molecular target: T1, Solute carrier organic anion transporter family member 1B1 (Homo sapiens, UniProt Q9Y6L6); experiment: TP_TRANSPORTER: inhibition of Phalloidin uptake (Phalloidin: 1 uM) in OATP-C-expressing HEK293 cells
T1 sequence (Q9Y6L6 whole entry): B1 chain

[2] = molecular target: Canalicular multispecific organic anion transporter 1/Solute carrier organic anion transporter family member 1B1 (Homo sapiens, UniProt Q92887+Q9Y6L6); experiment: TP_TRANSPORTER: transepithelial transport (basal to apical) of Phalloidin at a concentration of 1 uM in MRP2- and OATP-C-expressing MDCKII cells; conditions: dog, mdck-ii
[3] = molecular target: T1, Solute carrier organic anion transporter family member 1B1; experiment: TP_TRANSPORTER: inhibition of Phalloidin uptake (Phalloidin: 1 uM) by alpha-Amanitin at a concentration of 20 u M in OATP-C-expressing HEK293 cells; conditions: hek293, 20 µM
[4] = substrate: C[C@@H]1NC(=O)[C@H](C[C@@](C)(O)CO)NC(=O)[C@@H]2Cc3c([nH]c4ccccc34)SC[C@H](NC(=O)[C@@H]([C@H](C)O)NC1=O)C(=O)N1C[C@@H](O)C[C@H]1C(=O)N[C@@H](C)C(=O)N2; experiment: TP_TRANSPORTER: uptake in OATP-C-expressing HEK293 cells

Molecule | IC50 [1] [nM] | further results
CC(C)[C@@H]1NC(=O)[C@@H](Cc2ccccc2)NC(=O)[C@H](Cc2ccccc2)NC(=O)[C@@H]2CCCN2C(=O)[C@@H]2CCCN2C(=O)[C@H](Cc2ccccc2)NC(=O)[C@@H](Cc2ccccc2)NC(=O)[C@H](C)NC(=O)[C@@H]2CCCN2C(=O)[C@@H]2CCCN2C1=O [ANTAMANIDE] | 1000 | –
C[C@@H]1NC(=O)[C@H](C[C@@](C)(O)CO)NC(=O)[C@@H]2Cc3c([nH]c4ccccc34)SC[C@H](NC(=O)[C@@H]([C@H](C)O)NC1=O)C(=O)N1C[C@@H](O)C[C@H]1C(=O)N[C@@H](C)C(=O)N2 [PHALLOIDIN] (cyclo(A[dT]C[cisHyp]A[Trp(2-yl)][Leu(4R-OH,5-OH)]); thioether 3-6) | – | Activity [2]: substrate [+]
CO[C@H]1C[C@@H]2CC[C@@H](C)[C@@](O)(O2)C(=O)C(=O)N2CCCC[C@H]2C(=O)O[C@H]([C@H](C)C[C@@H]2CC[C@@H](O)[C@H](OC)C2)CC(=O)[C@H](C)/C=C(\C)[C@@H](O)[C@@H](OC)C(=O)[C@H](C)C[C@H](C)/C=C/C=C/C=C/1C [SIROLIMUS] | 1100 | –
O=C1OC(c2ccc(O)c(S(=O)(=O)O)c2)(c2ccc(O)c(S(=O)(=O)O)c2)c2c(Br)c(Br)c(Br)c(Br)c21 [SULFOBROMOPHTHALEIN SODIUM] | 50 | –
C=CC[C@@H]1/C=C(\C)C[C@H](C)C[C@H](OC)[C@H]2O[C@@](O)(C(=O)C(=O)N3CCCC[C@H]3C(=O)O[C@H](/C(C)=C/[C@@H]3CC[C@@H](O)[C@H](OC)C3)[C@H](C)[C@@H](O)CC1=O)[C@H](C)C[C@@H]2OC [TACROLIMUS ANHYDROUS] | 3700 | –
CC[C@H](C)[C@@H]1NC(=O)CNC(=O)[C@@H]2Cc3c([nH]c4cc(O)ccc34)[S+]([O-])C[C@@H](NC(=O)CNC1=O)C(=O)N[C@@H](CC(N)=O)C(=O)N1C[C@H](O)C[C@H]1C(=O)N[C@@H]([C@@H](C)[C@@H](O)CO)C(=O)N2 (stereo partly drawn) [alpha-Amanitin] | – | Activity [3]: is not an inhibitor [-]
B1 | – | Km [4]: 39 µM
